Structures are written as SMILES.

The first test concerns HT-1080 (ATCC, CCL-121) cells. In words: HT-1080 cell viability assay with ferroptosis inducer RSL3 (Cell Titer-Glo). Format: cell-based. Conditions: Homo sapiens; HT-1080 cells treated with RSL3; 3-fold, 10-point dilution, 1.1 μM highest concentration; Table 2; read-out: EC50 (nM), ferroptosis inhibitory activity. Summed up: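 HT-1080 cells (6000 per well) were cultured overnight at 37 °C, then co-treated with RSL3 and compound in a 3-fold, 10-point series topping at 1.1 μM. Viability was read by CellTiter-Glo luminescence and normalized to untreated controls. EC50 came from a sigmoidal non-linear regression fit.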
Background: Cellular ATP, detected with luciferase, serves as a proxy for viable cell number.
As for `CNCCCn1ncc2cc(Nc3ccc(N4CCC(C(F)(F)F)CC4)cc3)ccc21` [Compound 414, 1-(3-(methylamino)propyl)-N-(4-(4-(trifluoromethyl)piperidin-1-yl)phenyl)-1H-indazol-5-amine], the EC50 – broadly, the concentration giving half of the maximal effect – was 0.1 to 100 nM.
Still for that read-out and setting: the figure for `CN(C)c1cc(Nc2ccc3c(c2)n(C)c(=O)n3C)cc(N(C)C)c1` [Compound 277, 5-((3,5-bis(dimethylamino)phenyl)amino)-1,3-dimethyl-1,3-dihydro-2H-benzo[d]imidazol-2-one] is 0.1 to 100 nM; for `Cn1c(=O)c2ccc(Nc3ccc(N4CCC(C(F)(F)F)CC4)c(F)c3)cc2n1C(=O)OC(C)(C)C` [Compound 216, tert-butyl 6-((3-fluoro-4-(4-(trifluoromethyl)piperidin-1-yl)phenyl)amino)-2-methyl-3-oxo-2,3-dihydro-1H-indazole-1-carboxylate] it is 0.1 to 100 nM.
On to `CN1C(=O)COc2cc(Nc3ccc4c(c3)C(C)(C)CC4(C)C)ccc21` [Compound 39, 4-methyl-7-((1,1,3,3-tetramethyl-2,3-dihydro-1H-inden-5-yl)amino)-2H-benzo[b][1,4]oxazin-3(4H)-one], for which the EC50 was in the range of 100 to 1000 nM.
On the same count and under the same terms, the figure for `Cc1cc(Nc2ccc3c(c2)OCC(=O)N3)cnc1N1C[C@H](C)O[C@@H](C)C1` (stereo in doubt) [Compound 152, 7-((6-(2,6-dimethylmorpholino)-5-methylpyridin-3-yl)amino)-2H-benzo[b][1,4]oxazin-3(4H)-one] is 100 to 1000 nM; for `NC(=O)CCn1ncc2cc(Nc3ccc(N4CCC(C(F)(F)F)CC4)cc3)ccc21` [Compound 412, 3-(5-((4-(4-(trifluoromethyl)piperidin-1-yl)phenyl)amino)-1H-indazol-1-yl)propanamide] it is 0.1 to 100 nM; for `Cc1cc(N2CC(C)OC(C)C2)ccc1Nc1cc(F)c2c(c1)OCC(=O)N2C` (stereo not drawn) [Compound 141, ((4-(2,6-dimethylmorpholino)-2-methylphenyl)amino)-5-fluoro-4-methyl-2H-benzo[b][1,4]oxazin-3(4H)-one] it is 0.1 to 100 nM.
For `O=C1NCc2cc(Nc3ccc(N4CCC(C(F)(F)F)CC4)cc3)ccc21` [Compound 182, 5-((4-(4-(trifluoromethyl)piperidin-1-yl)phenyl)amino)isoindolin-1-one], the EC50 lay within 0.1 to 100 nM.
On the same count and under the same terms, under `CCN1Cc2ccc(Nc3ccc(N4CCCCC4)c(C(F)(F)F)c3)cc2C1` [Compound 177, 2-ethyl-N-(4-(piperidin-1-yl)-3-(trifluoromethyl)phenyl)isoindolin-5-amine] stands 0.1 to 100 nM; under `CN1C(=O)COc2cc(Nc3ccc(C(C)(C)C)cc3)ccc21` [Compound 47, 7-((4-(tert-butyl)phenyl)amino)-4-methyl-2H-benzo[b][1,4]oxazin-3(4H)-one], 0.1 to 100 nM.
Take `CN1Cc2cc(Nc3ccc(CN4CCCC4)cc3)ccc2C1=O` [Compound 238, 2-methyl-5-((4-(pyrrolidin-1-ylmethyl)phenyl)amino)isoindolin-1-one]: the EC50 lay in the range of 1000 to 10000 nM.
Take `CCN(CCCOC)c1ccc(Nc2ccc3c(c2)n(C)c(=O)n3C)cc1` [Compound 262, 5-((4-(ethyl(3-methoxypropyl)amino)phenyl)amino)-1,3-dimethyl-1,3-dihydro-2H-benzo[d]imidazol-2-one]: the EC50 is 0.1 to 100 nM.
Still for that read-out and setting: under `CN1Cc2cc(Nc3ccc(N4CCC(C(F)(F)F)CC4)cc3)ccc2C1=O` [Compound 173, 2-methyl-5-((4-(4-(trifluoromethyl)piperidin-1-yl)phenyl)amino) isoindolin-1-one] stands 0.1 to 100 nM; under `CNCCCn1c(=O)oc2ccc(Nc3ccc(N4CCC(C(F)(F)F)CC4)cc3)cc21` [Compound 418, 3-(3-(methylamino)propyl)-5-((4-(4-(trifluoromethyl)piperidin-1-yl)phenyl)amino)benzo[d]oxazol-2(3H)-one], 0.1 to 100 nM.
As to `CNCCN1C(=O)COc2cc(Nc3ccc(N4CC(C)OC(C)C4)cc3C)ccc21` (stereo not drawn) [Compound 55, 7-((4-(2,6-dimethylmorpholino)-2-methylphenyl)amino)-4-(2-(methylamino)ethyl)-2H-benzo[b][1,4]oxazin-3(4H)-one], the EC50 lay within 0.1 to 100 nM.
The same measure, in the same setting: the figure for `Cc1cc(N2CCC(O)(C(F)(F)F)CC2)ccc1Nc1ccc2c(c1)OCC(=O)N2C` [Compound 130, 7-((4-(4-hydroxy-4-(trifluoromethyl)piperidin-1-yl)-2-methylphenyl)amino)-4-methyl-2H-benzo[b][1,4]oxazin-3(4H)-one] is 0.1 to 100 nM; for `CN1Cc2cc(Nc3ccc(N4CCC(C)(C)CC4)cc3)ccc2C1=O` [Compound 211, 5-((4-(4,4-dimethylpiperidin-1 yl)phenyl)amino)-2-methylisoindolin-1-one] it is 0.1 to 100 nM.
Still for that read-out and setting: the figure for `Cn1c(=O)n(C)c2cc(Nc3ccc(C(=O)N4CCCC4)cc3)ccc21` [Compound 292, 1,3-dimethyl-5-((4-(pyrrolidine-1-carbonyl)phenyl)amino)-1,3-dihydro-2H-benzo[d]imidazol-2-one] is 1000 to 10000 nM; for `COC1(C(F)(F)F)CCN(c2ccc(Nc3ccc4c(c3)OCC(=O)N4C)c(C)c2)CC1` [Compound 129, 7-((4-(4-methoxy-4-(trifluoromethyl)piperidin-1-yl)-2-methylphenyl)amino)-4-methyl-2H-benzo[b][1,4]oxazin-3(4H)-one] it is 0.1 to 100 nM; for `CC(C)(C)c1ccc(Nc2ccc3oc(=O)ccc3c2)cc1` [Compound 120, 6-((4-(tert-butyl)phenyl)amino)-2H-chromen-2-one] it is 0.1 to 100 nM.
Turning to `CNCCCN1C(=O)COc2cc(Nc3ccc(N4CCC(C(F)(F)F)CC4)cc3)ccc21` [Compound 41, 4-(3-(methylamino)propyl)-7-((4-(4-(trifluoromethyl)piperidin-1-yl)phenyl)amino)-2H-benzo[b][1,4]oxazin-3(4H)-one], the EC50 lay within 0.1 to 100 nM.
Still for that read-out and setting: the figure for `Cc1cc(N2CC(C)OC(C)C2)ccc1Nc1ccc2c(c1)CN(C)C2` (stereo not drawn) [Compound 439, N-(4-(2,6-dimethylmorpholino)-2-methylphenyl)-2-methylisoindolin-5-amine] is 0.1 to 100 nM; for `O=C1c2ccc(Nc3ccc(N4CCC(C(F)(F)F)CC4)cc3)cc2CN1CC=C(F)F` [Compound 215, 2-(3,3-difluoroallyl)-5-((4-(4-(trifluoromethyl)piperidin-1-yl)phenyl)amino)isoindolin-1-one] it is 0.1 to 100 nM.
Same read-out and setting: under `Cn1cnc2ccc(Nc3ccc(N4CCC(C(F)(F)F)CC4)cc3)cc21` [Compound 350, 1-methyl-N-(4-(4-(trifluoromethyl)piperidin-1-yl)phenyl)-1H-benzo[d]imidazol-6-amine] stands 0.1 to 100 nM.
On the same count and under the same terms, under `COc1cc(Nc2ccc(N3CCC(C(F)(F)F)CC3)cc2)cc2c1ccn2C` [Compound 395, 4-methoxy-1-methyl-N-(4-(4-(trifluoromethyl)piperidin-1-yl)phenyl)-1H-indol-6-amine] stands 0.1 to 100 nM.

Staying with this test, now noted: Homo sapiens; HT-1080 cells treated with RSL3; 3-fold, 10-point dilution, 1.1 μM highest concentration; Table 3; read-out: EC50 (nM), ferroptosis inhibitory activity.
As for `Cc1cc(N2CCC(C)CC2)ccc1Nc1ccc2c(c1)OCC(=O)N2` [Compound 491, 7-((2-methyl-4-(4-methylpiperidin-1-yl)phenyl)amino)-2H-benzo[b][1,4]oxazin-3(4H)-one], the EC50 fell in the range of 0.1 to 100 nM.
The same measure, in the same setting: the figure for `Cc1cc(N2CCC2)ccc1Nc1ccc2c(c1)OCC(=O)N2` [Compound 585, 7-((4-(azetidin-1-yl)-2-methylphenyl)amino)-2H-benzo[b][1,4]oxazin-3(4H)-one] is 0.1 to 100 nM; for `Cc1cc(N2CCC(C(F)(F)F)CC2)ccc1Nc1ccn2ccnc2c1` [Compound 606, N-(2-methyl-4-(4-(trifluoromethyl)piperidin-1-yl)phenyl) imidazo[1,2-a]pyridin-7-amine] it is 100 to 1000 nM.
Regarding `Cc1cc(N2CCC(C(F)(F)F)CC2)ccc1Nc1ccc2[nH]c(N)nc2c1` [Compound 526, N5-(2-methyl-4-(4-(trifluoromethyl)piperidin-1-yl)phenyl)-1H-benzo[d]imidazole-2,5-diamine], the EC50 lay within 0.1 to 100 nM.
Turning to `CC1CC(C(F)(F)F)CCN1c1ccc(Nc2ccc3c(c2)OCC(=O)N3)cc1` (stereo not drawn) [Compound 642, 7-((4-(2-methyl-4-(trifluoromethyl)piperidin-1-yl)phenyl)amino)-2H-benzo[b][1,4]oxazin-3(4H)-one], the EC50 was 0.1 to 100 nM.
Still for that read-out and setting: the figure for `CCC1Oc2cc(Nc3ccc(C4CCOCC4)cc3)ccc2N(C)C1=O` (stereo not drawn) [Compound 472, 2-ethyl-4-methyl-7-((4-(tetrahydro-2H-pyran-4-yl)phenyl)amino)-2H-benzo[b][1,4]oxazin-3(4H)-one] is 0.1 to 100 nM; for `Cc1cc(N2CCC(C(F)(F)F)CC2)ccc1Nc1ccc2c(c1)OCCNC2=O` [Compound 531, 8-((2-methyl-4-(4-(trifluoromethyl)piperidin-1-yl)phenyl)amino)-3,4-dihydrobenzo[f][1,4]oxazepin-5(2H)-one] it is 0.1 to 100 nM; for `Cc1cc(N2CCC(F)CC2)ccc1Nc1cnc2c(c1)OCC(=O)N2` [Compound 558, 7-(4-(4-fluoropiperidin-1-yl)-2-methylphenylamino)-2H-pyrido[3,2-b][1,4]oxazin-3(4H)-one] it is 0.1 to 100 nM.
Same read-out and setting: the figure for `Cc1cc(Nc2cc(F)c3c(c2)OCC(=O)N3)ccc1N1CCC(C(F)(F)F)CC1` [Compound 481, 5-fluoro-7-((3-methyl-4-(4-(trifluoromethyl)piperidin-1-yl)phenyl)amino)-2H-benzo[b][1,4]oxazin-3(4H)-one] is 0.1 to 100 nM.
On the same count and under the same terms, the figure for `CN1C(=O)COc2cc(N(C)c3ccc(N4CCC(C(F)(F)F)CC4)cc3)ccc21` [Compound 532, 4-methyl-7-(methyl(4-(4-(trifluoromethyl)piperidin-1-yl)phenyl)amino)-2H-benzo[b][1,4]oxazin-3(4H)-one] is 100 to 1000 nM; for `Cc1cc(N2CC(OC(F)F)C2)ccc1Nc1ccc2c(c1)OCC(=O)N2` [Compound 652, 7-[4-[3-(difluoromethoxy)azetidin-1-yl]-2-methyl-anilino]-4H-1,4-benzoxazin-3-one] it is 0.1 to 100 nM.

Source of the values: patent US20240327393A1 (SIRONAX LTD., priority 2021, published 2024).
